According to publication PMC7868085, “A potent and selective small molecule inhibitor of myoferlin attenuates colorectal cancer progression” (Clinical and Translational Medicine, 2021):

Biological target: T1, Myoferlin (MYOF) (Homo sapiens, UniProt Q9NZM1)
T1 construct: C2D domain of MYOF (MYOF-C2D)
T1 sequence (Q9NZM1 1123-1251 limits assumed): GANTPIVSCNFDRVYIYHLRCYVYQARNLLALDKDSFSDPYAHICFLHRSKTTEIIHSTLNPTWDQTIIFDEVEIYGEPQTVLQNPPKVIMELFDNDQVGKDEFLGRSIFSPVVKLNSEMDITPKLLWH
Assay: SPR (Biacore T200, immobilized MYOF-C2D); confirmed by BLI (KD =[…])
Format: binding

CCc1nc(-c2ccc(OC)cc2)n(-c2cccc(C(=O)NCCCCc3ccccc3)c2)n1 [YQ456, 3‐(3‐ethyl‐5‐(4‐methoxyphenyl)‐1H‐1,2,4‐triazol‐1‐yl)‐N‐(4‐phenylbutyl)benzamide]
Kd: 37 nM
